The subject of test [1] is HDAC. Description: Fluorescence-based HDAC inhibition assay in solution using HeLa nuclear extracts.
For test [2], the system named is HDAC. Described as above. The test is classed as biochemical.
Setting [3] is: benzamide-based multivalent HDACi, procedure of Example 8 (HeLa nuclear extracts, TosGPK(Ac)-AMC substrate).
Where [4] appears, read: hydroxamic acid-based multivalent HDACi, HeLa nuclear extracts, TosGPK(Ac)-AMC substrate 43 µM, 45 min at 37 °C, average of at least 2 experiments.

By EC50 is commonly meant the concentration needed to bring the measured effect to its halfway point. Higher therefore signals weaker potency.

Peptide text beside a SMILES is read from it. * marks the point of attachment. X1 = Nc1ccccc1NC(=O)c1ccc(CC(=O)*)cc1

As for “RAFT-(N-(2-aminophenyl)-4-(2-(((1-X-1H-1,2,3-triazol-4-yl)methyl)amino)-2-oxoethyl) benzamide)4 [MuH2222]”, the EC50 in test [1] (setting [3]) came out at 1760 ± 890 nM.
On to “RAFT-(4-pentyn-1-ol)4 [MuH2123, reference compound]”, for which the “EC50 (µM)” value in test [1] (setting [4]) was “Inact”.
In the case of `O=C(CCCCCCC(=O)Nc1ccc(NC(=O)CCCCCCC(=O)NO)cc1)NO` [MuH2323, N^1,N^1'-(1,4-Phenylene)bis(N8-hydroxyoctanediamide)], in test [2] (setting [4]), the response was half-maximal at 480 ± 320 nM (EC50).
In turn, “RAFT-(N^1-(4-(2-amino-2-oxoethyl)phenyl)-N^8-hydroxyoctane diamide))2 [MuH2357]” showed an EC50 in test [1] (setting [4]) of 230 ± 70 nM.
In the case of `O=C(CCCCCCC(=O)Nc1cccc(NC(=O)CCCCCCC(=O)NO)c1)NO` [MuH2324, N^1,N^1'-(1,3-Phenylene)bis(N8-hydroxyoctanediamide)], in test [2] (HDAC inhibition, versus monovalent inhibitor SAHA), the “increase in activity compare to the SAHA” value came out at 14 fold. Moreover, the response in test [2] (setting [4]) was half-maximal at 60 ± 10 nM (EC50).
`C[C@@H]1NC(=O)[C@H](CCCCNC(=O)CCCCCCC(=O)NO)NC(=O)CNC(=O)[C@@H]2CCCN2C(=O)[C@H](CCCCNC(=O)CCCCCCC(=O)NO)NC(=O)[C@H](C)NC(=O)[C@H](CCCCNC(=O)CCCCCCC(=O)NO)NC(=O)CNC(=O)[C@@H]2CCCN2C(=O)[C@H](CCCCNC(=O)CCCCCCC(=O)NO)NC1=O` [MuH2121, RAFT-(methyl 8-(hydroxyamino)-8-oxooctanoate)4] came in with an EC50 in test [1] (setting [4]) of 5760 nM. This counts as single-digit micromolar.
Turning to `Nc1ccccc1NC(=O)CCCCCCC(=O)Nc1cccc(NC(=O)CCCCCCC(=O)Nc2ccccc2N)c1` [MuH2345, N^1,N^1'-(1,3-Phenylene)bis(N8-(2-aminophenyl)octanediamide)], the 50% effective concentration (EC50) in test [2] (setting [3]) was found to be 31500 ± 29900 nM.
The compound `C[C@@H]1NC(=O)[C@H](CCCCNC(=O)CCCCCCC(=O)NO)NC(=O)CNC(=O)[C@@H]2CCCN2C(=O)[C@H](CCCCNC(=O)CCCCCCC(=O)NO)NC(=O)[C@H](C)NC(=O)[C@H](CCCCNC(=O)CCCCCCC(=O)NO)NC(=O)CNC(=O)[C@@H]2CCCN2C(=O)[C@H](CCCCNC(=O)CCCCCCC(=O)NO)NC1=O` [MuH2120, RAFT-(methyl 8-(hydroxyamino)-8-oxooctanoate)4] yielded a concentration giving a half-maximal response (EC50) in test [1] (setting [4]) of 2840 nM.
As for `O=C(CCCCCCC(=O)Nc1ccccc1NC(=O)CCCCCCC(=O)NO)NO` [MuH2322, N^1,N^1'-(1,2-Phenylene)bis(N^8-hydroxyoctanediamide)], a half-maximal effect in test [2] (setting [4]) (EC50) was put at 520 ± 110 nM.
`C[C@@H]1NC(=O)CNC(=O)[C@@H]2CCCN2C(=O)[C@H](CCCCNC(=O)Cc2ccc(C(=O)Nc3ccccc3N)cc2)NC(=O)[C@H](C)NC(=O)[C@H](C)NC(=O)CNC(=O)[C@@H]2CCCN2C(=O)[C@H](CCCCNC(=O)Cc2ccc(C(=O)Nc3ccccc3N)cc2)NC(=O)[C@H](C)NC1=O` [MuH2224, RAFT-(4-(2-X-2-oxoethyl)-N-(2-aminophenyl)benzamide)2] (cyclo(AAK(X1)PGAAK(X1)PG)) came in with an EC50 in test [1] (setting [3]) of 7810 ± 5270 nM.
For the compound `Nc1ccccc1NC(=O)c1ccc(CC(=O)NCCCNC(=O)Cc2ccc(C(=O)Nc3ccccc3N)cc2)cc1` [MuH2320, 4,4'-((Propane-1,3-diylbis(azanediyl))bis(2-oxoethane-2,1-diyl))bis(N-(2-aminophenyl)benzamide)], the EC50 in test [2] (setting [3]) amounted to 9210 ± 2550 nM.
Compound `O=C(CCCCCCC(=O)Nc1cc(NC(=O)CCCCCCC(=O)NO)c(NC(=O)CCCCCCC(=O)NO)cc1NC(=O)CCCCCCC(=O)NO)NO` [MuH2344, N1,N1',N1",N1‴-(Benzene-1,2,4,5-tetrayl)tetrakis(N8-hydroxyoctanediamide)] had a half-maximal effective concentration (EC50) in test [2] (setting [4]) of 2250 ± 650 nM.
On to `O=C(CCCCCCc1cn(CCCCCCC(=O)NO)nn1)NO` [MuH2321, 7,7'-(1H-1,2,3-Triazole-1,4-diyl)bis(N-hydroxyheptanamide)], for which the EC50 in test [2] (setting [4]) was found to be 230 ± 160 nM.
Consider “RAFT-(4-(2-((5-X-5-oxopentyl)amino)-2-oxoethyl)-N-(2-aminophenyl)benzamide)4 [MuH2220]”, for which, in test [1] (setting [3]), the response was half-maximal at 1220 ± 700 nM (EC50).
The compound `Nc1ccccc1NC(=O)c1ccc(CNC(=O)OCc2cccnc2)cc1` [MS275, reference compound] registered an EC50 in test [2] (setting [3]) of 7230 ± 2070 nM.
“RAFT-(4-(2-X-2-oxoethyl)-N-(2-aminophenyl)benzamide)4 [MuH2122]”: the EC50 in test [1] (setting [3]) is 1590 ± 870 nM.

The values above are taken from patent EP4574212A1, “HISTONE DEACETYLASE INHIBITORS” (Centre National de la Recherche Scientifique, priority 2023, dated 2025).
